Measured values as given in the supplement of paper PMC8967900.

Legend:
Test in all cases: selective drug sensitivity score (sDSS, relative to normal bone marrow) (sDSS (score)); higher = more potent and effective on the cell line relative to normal bone marrow cells
Conditions in all cases: 72 h
[1] = test system: SEM cells
[2] = test system: PF-382
[3] = test system: KARPAS-45
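Further: ALL cell lines in 384-well plates, five doses spanning 10,000-fold, each plate scaled between vehicle and 100 µmol/L benzalkonium chloride controls, sDSS an adapted area-under-curve metric.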

Compound | selective drug sensitivity score [1] | selective drug sensitivity score [2] | selective drug sensitivity score [3]
COc1cc2c(cc1-c1c(C)noc1C)ncc1[nH]c(=O)n([C@H](C)c3ccccn3)c12 [I-BET151] (top concentration 10000 nM) | 10.5 | 4.06 | 9.16
O=C1CCc2c(Oc3ccc4c(c3)[C@@H]3[C@H](O4)[C@H]3c3nc4cc(C(F)(F)F)ccc4[nH]3)ccnc2N1 [Lifirafenib (BGB-283)] (top concentration 10000 nM) | 15.7 | 3.18 | 2.88
NC(=O)N1CCC(CC(=O)N2CCC([C@H]3c4ncc(Br)cc4CCc4cc(Cl)cc(Br)c43)CC2)CC1 [Lonafarnib] (top concentration 100000 nM) | 14.1 | 9.44 | 24.1
NC1(c2ccc(-c3nc4ccn5c(=O)[nH]nc5c4cc3-c3ccccc3)cc2)CCC1 [MK-2206] (top concentration 1000 nM) | 4.36 | 3.26 | 2.26
O=C(Nc1cccc(NC(=O)c2cccc(O)c2O)c1)c1cccc(O)c1O [MST-312] (top concentration 10000 nM) | 0.6 | 6 | 8.1
CC(=O)O[C@]1(C(C)=O)CC[C@H]2[C@@H]3C=C(C)C4=CC(=O)CC[C@]4(C)[C@H]3CC[C@@]21C [Megestrol_acetate] (top concentration 10000 nM) | 3.42 | 0.32 | 2.72
CO[C@@H]1[C@H](N(C)C(=O)c2ccccc2)C[C@H]2O[C@]1(C)n1c3ccccc3c3c4c(c5c6ccccc6n2c5c31)C(=O)NC4 [Midostaurin] (top concentration 10000 nM) | 19.3 | 4.46 | 4.06
CCCCCCCCCCCCCCCCOP(=O)([O-])OCC[N+](C)(C)C [Miltefosine] (top concentration 100000 nM) | 4.36 | 1.16 | 2.26
Nc1ccccc1NC(=O)c1ccc(CNc2nccc(-c3cccnc3)n2)cc1 [Mocetinostat] (top concentration 10000 nM) | 9.04 | 6.04 | 8.84
CCNC(=O)C[C@@H]1N=C(c2ccc(Cl)cc2)c2cc(OC)ccc2-n2c(C)nnc21 [Molibresib] (top concentration 10000 nM) | 7.7 | 2.7 | 5.3
Nc1ncnc2c1c(-c1cccc(OCc3ccccc3)c1)cn2[C@H]1C[C@@H](CN2CCC2)C1 [NVP-AEW541] (top concentration 10000 nM) | 1.38 | -1.52 | -0.92
CN[C@@H](C)C(=O)N[C@H](C(=O)N1CCC[C@H]1c1nc(C(=O)c2ccc(F)cc2)cs1)C1CCCCC1 [NVP-LCL161] (top concentration 25000 nM) | -0.22 | -4.12 | -1.82
CC(=O)c1cc2c(o1)C(=O)c1ccccc1C2=O [Napabucasin] (top concentration 20000 nM) | 0.52 | -0.28 | 1.22
CC1(C)CCC(c2ccc(Cl)cc2)=C(CN2CCN(c3ccc(C(=O)NS(=O)(=O)c4ccc(N[C@H](CCN5CCOCC5)CSc5ccccc5)c(S(=O)(=O)C(F)(F)F)c4)cc3)CC2)C1 [Navitoclax] (top concentration 10000 nM) | 14.2 | 13.7 | 22.8
CC(=O)c1c(C)c2cnc(Nc3ccc(N4CCNCC4)cn3)nc2n(C2CCCC2)c1=O [Palbociclib] (top concentration 10000 nM) | 4.98 | 5.48 | 3.68
COc1ccc(COc2cc3oc(=O)c4cc(C(C)O)ccc4c3cc2OC)cc1 (configuration not stated) [Palomid-529] (top concentration 10000 nM) | 1.76 | 1.06 | 2.76
FC(F)(F)c1ccc(CNc2ccc(Cc3c[nH]c4ncc(Cl)cc34)cn2)cn1 [Pexidartinib] (top concentration 10000 nM) | 12.6 | -1.22 | -0.02
CO[C@H](C(=O)[C@@H](O)[C@@H](C)O)[C@@H]1Cc2cc3cc(O[C@H]4C[C@@H](O[C@H]5C[C@@H](O)[C@H](O)[C@@H](C)O5)[C@@H](O)[C@@H](C)O4)c(C)c(O)c3c(O)c2C(=O)[C@H]1O[C@H]1C[C@@H](O[C@H]2C[C@@H](O[C@H]3C[C@](C)(O)[C@H](O)[C@@H](C)O3)[C@H](O)[C@@H](C)O2)[C@H](O)[C@@H](C)O1 [Plicamycin] (top concentration 10000 nM) | -16.6 | -12.1 | -11.1
Cn1cc(CNCC2CCN(c3ncc(C(=O)NO)cn3)CC2)c2ccccc21 [Quisinostat] (top concentration 1000 nM) | 6.38 | 2.08 | 8.18
CC(C)(C)Cn1c(N)nc2ccc(-c3[nH]c(C(C)(C)C)nc3-c3ccc(F)cc3)nc21 [Ralimetinib] (top concentration 10000 nM) | 1.76 | 2.06 | 5.36

Compound | selective drug sensitivity score [1] | selective drug sensitivity score [2] | selective drug sensitivity score [3]
O=C(CCCCCCNC(=O)c1cnc(N(c2ccccc2)c2ccccc2)nc1)NO [Rocilinostat] (top concentration 10000 nM) | 4.74 | 4.84 | 10
CN1CCC(CNc2ccc3ncc(-c4cccc(OC(F)(F)F)c4)n3n2)CC1 [SGI-1776] (top concentration 10000 nM) | 6.92 | -2.68 | -2.08
O=C(/C=C\n1cnc(-c2cc(C(F)(F)F)cc(C(F)(F)F)c2)n1)NNc1cnccn1 [Selinexor] (top concentration 10000 nM) | 5.38 | 9.78 | 10.9
Cn1cnc2c(F)c(Nc3ccc(Br)cc3Cl)c(C(=O)NOCCO)cc21 [Selumetinib] (top concentration 10000 nM) | -0.3 | -1.8 | -3.8
COCC[n+]1c2c(n(Cc3cnccn3)c1C)C(=O)c1ccccc1C2=O [Sepantronium_bromide] (top concentration 10000 nM) | 13.3 | 14.1 | 11
O=C(O)c1ccc2c(c1)nc(Nc1cccc(Cl)c1)c1ccncc12 [Silmitasertib] (top concentration 10000 nM) | 1.4 | 2 | 4.1
CO[C@H]1C[C@@H]2CC[C@@H](C)[C@@](O)(O2)C(=O)C(=O)N2CCCC[C@H]2C(=O)O[C@H]([C@H](C)C[C@@H]2CC[C@@H](O)[C@H](OC)C2)CC(=O)[C@H](C)/C=C(\C)[C@@H](O)[C@@H](OC)C(=O)[C@H](C)C[C@H](C)/C=C/C=C/C=C/1C [Sirolimus] (top concentration 100 nM) | 1.34 | 1.84 | -0.16
COCCNCc1ccc(-c2cc3nccc(Oc4ccc(NC(=O)C5(C(=O)Nc6ccc(F)cc6)CC5)cc4F)c3s2)nc1 [Sitravatinib] (top concentration 2500 nM) | 26.2 | 1.08 | 3.78
CCN(CC)CCNC(=O)c1c(C)[nH]c(/C=C2\C(=O)Nc3ccc(F)cc32)c1C [Sunitinib] (top concentration 1000 nM) | 15.3 | -1.44 | -0.64
CC(C)Oc1ccc(-c2nn([C@@H](C)c3oc4ccc(F)cc4c(=O)c3-c3cccc(F)c3)c3ncnc(N)c23)cc1F [TGR-1202] (top concentration 2500 nM) | -2.56 | -2.56 | -2.36
CN(C(=O)c1ccc(F)cc1C(F)(F)F)C1CCN(c2nnc(-c3ccnn3C)c3ccccc23)CC1 [Taladegib] (top concentration 10000 nM) | -1.12 | 0.78 | -0.92
COc1cc(Nc2ncc(F)c(Nc3ccc4c(n3)NC(=O)C(C)(C)O4)n2)cc(OC)c1OC [Tamatinib] (top concentration 10000 nM) | 12 | -4.32 | -2.92
Nc1cc(F)ccc1NC(=O)c1ccc(CNC(=O)/C=C/c2cccnc2)cc1 [Tucidinostat] (top concentration 10000 nM) | 10.3 | 0.74 | 8.74
CN[C@@H]1C[C@H]2O[C@@](C)([C@@H]1OC)n1c3ccccc3c3c4c(c5c6ccccc6n2c5c31)C(=O)N[C@H]4O [UCN-01] (top concentration 10000 nM) | 7.74 | 5.44 | 6.74
CC(C)Nc1cc(-c2c[nH]c(C(=O)N[C@H](CO)c3cccc(Cl)c3)c2)c(Cl)cn1 [Ulixertinib] (top concentration 10000 nM) | 1.62 | -0.28 | -0.18
Cn1ncc(Cl)c1-c1cc(C(=O)N[C@H](CN)Cc2ccc(F)c(F)c2)oc1Cl [Uprosertib] (top concentration 10000 nM) | 4.5 | 4.6 | 5.6
C=CC(=O)N1CC/C(=C\c2ccc(F)c([N+](=O)[O-])c2)C(=O)/C(=C/c2ccc(F)c([N+](=O)[O-])c2)C1 [VLX1570] (top concentration 10000 nM) | 3.38 | -1.72 | -1.02
C[C@@H]1COC(Nc2ccc3ncnc(Nc4ccc(OCc5nccs5)c(Cl)c4)c3c2)=N1 [Varlitinib] (top concentration 10000 nM) | 2.92 | -0.18 | -0.18
CNC(=O)c1cccc(-c2ccc3c(N4CCOC[C@@H]4C)nc(N4CCOC[C@@H]4C)nc3n2)c1 [Vistusertib] (top concentration 10000 nM) | 4.82 | 7.02 | 5.02
